Legend:
[1] = test system: Nnmt expression in 3T3-L1 cells; assay: Nnmt mRNA by real-time PCR in 3T3-L1; assay type: cell-based, mouse; settings: post-confluent 3T3-L1 treated 48 h with individual DIM components, vs unstimulated cells
Procedure: 3T3-L1 Mouse Embryonic Fibroblasts were purchased from American Type Culture Collection (ATCC CL-173). The cells were propagated and maintained in Dulbecco’s modified Eagle’s medium (DMEM, Gibco) supplemented with 10% calf serum (FCS) at 37 °C in 5% CO2 atmosphere. Subconfluents cells were expanded and utilized for the subsequent experiments at the passages 3–6. To induce differentiation, 2-day post-confluent 3T3-L1 pre-adipocytes were cultured for 48 h with DIM (DMEM supplemented with 10% fetal bovine serum (FBS), 1.0 µM Dexamethasone (G. Biosciences), […] Insulin (Sigma) and 0.5 mM IBMX (Sigma). Two days after induction the DIM medium was removed and the cells were maintained in DMED supplemented with 10% FBS and […] Insulin, which was replaced every 48 h, until the cells became fully differentiated (8–10 days after induction). C3H10T1/2 cells were purchased from American Type Culture Collection (ATCC, clone 8, CCL-226, were grown and induced to differentiate following the same protocol, with cell cultures < 3 passages. […] Real-time PCRs were performed using SYBR Green PCR Master Mix (Applied Biosystems) with an ABI PRISM 7900HT Sequence Detection System (Applied Biosystems). RT-PCR data were normalized to GAPDH and expressed relative to control (ddCt method).

[2] = target: T1, NRMT1 (Homo sapiens, UniProt Q9BV86); assay: Methyltransferase Hot Spot radioisotope assay, NRMT1; assay type: biochemical; settings: 10-dose, threefold dilution; CC-410 from 300 μM, control from 100 μM; substrate RCC1
T1 sequence (Q9BV86 1-223): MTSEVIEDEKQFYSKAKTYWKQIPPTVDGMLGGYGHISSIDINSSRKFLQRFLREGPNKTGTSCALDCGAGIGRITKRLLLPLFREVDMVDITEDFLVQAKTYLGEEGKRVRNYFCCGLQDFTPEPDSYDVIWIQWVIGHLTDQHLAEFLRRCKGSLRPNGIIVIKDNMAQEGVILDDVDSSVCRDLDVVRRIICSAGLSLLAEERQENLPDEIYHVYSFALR
Procedure: (§1) CC-410 was screened in biochemical assays for activity against a panel of 11 methyltransferases (MT) by using the radioisotope (3H-AdoMet) based MT Hot Spot Assay. All the assays were performed by Reaction Biology Corporation (RBC, Malven, PA, USA). Briefly CC-410 was incubated with the selected MTs, corresponding substrates, and radiolabeled SAM (S-Adenosyl-L-[methyl-3 H]methionine). The specific MTs assessed, and the corresponding substrates are as follows: DNMT1- Poly dl-dC, DNMT3a- Lambda DNA, DNMT3b- Lambda DNA, DOT1L- Nucleosomes, EZH2 Complex- Core Histone, METTL21A- HSPA8-[CTD], NRMT1- RCC1, PRMT3- Histone H4, PRMT5/MEP50- Histone H2A, SET1b -Core Histone Complex and SMYD2- Nucleosomes. Reaction mixtures were incubated and spotted onto filter papers, which were then washed to remove unreacted SAM, leaving the bound radiolabeled product. Detection of the radiolabeled, methylated product was performed via a nanoliter-scale radioisotope filter binding platform. […] For each assay, control compounds were included as positive controls for enzyme function and assay reproducibility. […] IC50 was calculated by non-linear least square fitting dose–response curve.

[3] = target: T2, SET1b Complex (Homo sapiens, UniProt Q9UPS6); assay: Methyltransferase Hot Spot radioisotope assay, SET1b Complex; assay type: biochemical; settings: 10-dose, threefold dilution; CC-410 from 300 μM, control from 100 μM; substrate Core Histone; read-out: IC50* (M) SET1b Complex
T2 construct: purchased Reaction Biology Corporation
Procedure: as §1

[4] = target: T3, DNMT3a (Homo sapiens, UniProt Q9Y6K1); assay: Methyltransferase Hot Spot radioisotope assay, DNMT3a; assay type: biochemical
T3 construct: purchased Reaction Biology Corporation
T3 sequence (Q9Y6K1 whole entry, looked up, species assumed): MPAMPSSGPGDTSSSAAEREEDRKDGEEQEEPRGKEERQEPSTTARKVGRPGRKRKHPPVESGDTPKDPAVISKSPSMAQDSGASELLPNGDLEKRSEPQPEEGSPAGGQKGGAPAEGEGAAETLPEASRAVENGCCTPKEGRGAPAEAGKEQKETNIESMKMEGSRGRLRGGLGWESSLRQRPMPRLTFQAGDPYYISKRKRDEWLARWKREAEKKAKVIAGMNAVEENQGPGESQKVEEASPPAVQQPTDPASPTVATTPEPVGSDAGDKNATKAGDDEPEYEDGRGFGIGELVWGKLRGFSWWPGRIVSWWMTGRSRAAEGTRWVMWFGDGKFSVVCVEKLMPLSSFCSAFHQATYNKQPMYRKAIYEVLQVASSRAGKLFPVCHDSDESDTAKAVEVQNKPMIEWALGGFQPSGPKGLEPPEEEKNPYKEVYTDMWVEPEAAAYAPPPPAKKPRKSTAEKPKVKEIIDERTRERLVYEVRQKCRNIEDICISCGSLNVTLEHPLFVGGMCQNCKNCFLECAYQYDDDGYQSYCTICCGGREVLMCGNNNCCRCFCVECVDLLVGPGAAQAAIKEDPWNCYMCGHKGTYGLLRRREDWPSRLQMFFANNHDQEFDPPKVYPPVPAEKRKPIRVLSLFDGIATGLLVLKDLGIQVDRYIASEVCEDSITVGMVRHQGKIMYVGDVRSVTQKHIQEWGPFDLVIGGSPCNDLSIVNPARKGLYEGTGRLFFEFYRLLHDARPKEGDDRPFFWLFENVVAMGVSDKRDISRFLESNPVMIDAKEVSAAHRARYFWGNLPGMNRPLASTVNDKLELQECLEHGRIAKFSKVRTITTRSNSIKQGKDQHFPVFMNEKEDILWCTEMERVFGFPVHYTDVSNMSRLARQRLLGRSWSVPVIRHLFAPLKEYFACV
Procedure: as §1

[5] = target: T4, DNMT3b (Homo sapiens, UniProt Q9UBC3); assay: Methyltransferase Hot Spot radioisotope assay, DNMT3b; assay type: biochemical
T4 construct: purchased Reaction Biology Corporation
Procedure: as §1

[6] = target: METTL21A (Homo sapiens, UniProt Q8WXB1); assay: Methyltransferase Hot Spot radioisotope assay, METTL21A; assay type: biochemical; settings: 10-dose, threefold dilution; CC-410 from 300 μM, control from 100 μM; substrate HSPA8-[CTD]
Sequence of METTL21A (Q8WXB1 whole entry, species assumed): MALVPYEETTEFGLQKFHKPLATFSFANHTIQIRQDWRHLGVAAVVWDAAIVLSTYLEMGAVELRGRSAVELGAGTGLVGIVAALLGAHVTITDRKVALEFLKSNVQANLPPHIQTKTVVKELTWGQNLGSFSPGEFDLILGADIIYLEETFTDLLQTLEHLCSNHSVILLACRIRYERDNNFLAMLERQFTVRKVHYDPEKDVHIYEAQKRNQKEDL
Procedure: as §1, with “The specific MTs assessed, and the corresponding substrates are as follows: DNMT1- Poly dl-dC, DNMT3a- Lambda DNA, DNMT3b- Lambda DNA, DOT1L- Nucleosomes, EZH2 Complex- Core Histone, METTL21A- HSPA8-[CTD], NRMT1- RCC1, PRMT3- Histone H4, PRMT5/MEP50- Histone H2A, SET1b -Core Histone Complex and SMYD2- Nucleosomes.” left out

[7] = target: PRMT3 (Homo sapiens, UniProt O60678); assay: Methyltransferase Hot Spot radioisotope assay, PRMT3; assay type: biochemical; settings: 10-dose, threefold dilution; CC-410 from 300 μM, control from 100 μM; substrate Histone H4; read-out: IC50* (M) PRMT3
Sequence of PRMT3 (O60678 whole entry, species assumed): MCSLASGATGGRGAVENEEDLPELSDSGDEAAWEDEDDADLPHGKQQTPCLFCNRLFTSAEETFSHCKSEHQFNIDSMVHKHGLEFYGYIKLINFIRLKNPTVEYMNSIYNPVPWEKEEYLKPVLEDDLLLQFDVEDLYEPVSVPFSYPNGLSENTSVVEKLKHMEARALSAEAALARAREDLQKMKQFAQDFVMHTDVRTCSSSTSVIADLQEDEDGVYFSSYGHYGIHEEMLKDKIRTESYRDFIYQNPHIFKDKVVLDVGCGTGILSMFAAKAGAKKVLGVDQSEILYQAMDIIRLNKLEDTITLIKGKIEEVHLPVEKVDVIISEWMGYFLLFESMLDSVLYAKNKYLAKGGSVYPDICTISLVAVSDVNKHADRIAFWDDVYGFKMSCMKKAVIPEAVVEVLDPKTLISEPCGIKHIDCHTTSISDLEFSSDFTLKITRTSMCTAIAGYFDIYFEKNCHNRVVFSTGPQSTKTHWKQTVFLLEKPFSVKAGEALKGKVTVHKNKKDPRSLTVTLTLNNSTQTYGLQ
Procedure: as §1, with “The specific MTs assessed, and the corresponding substrates are as follows: DNMT1- Poly dl-dC, DNMT3a- Lambda DNA, DNMT3b- Lambda DNA, DOT1L- Nucleosomes, EZH2 Complex- Core Histone, METTL21A- HSPA8-[CTD], NRMT1- RCC1, PRMT3- Histone H4, PRMT5/MEP50- Histone H2A, SET1b -Core Histone Complex and SMYD2- Nucleosomes.” left out

C[C@@H]1C[C@H]2[C@@H]3CCC4=CC(=O)C=C[C@]4(C)[C@@]3(F)[C@@H](O)C[C@]2(C)[C@@]1(O)C(=O)CO [DEX, dexamethasone]
Nnmt expression (mRNA, RT-PCR) [1]: induction comparable with that of the whole cocktail

CC(C)Cn1c(=O)n(C)c(=O)c2[nH]cnc21 [IBMX, 3-isobutyl-1-methylxanthine]
Nnmt expression (mRNA, RT-PCR) [1]: neither insulin nor IBMX impacted Nnmt expression significantly

Nc1ncnc2c1ncn2[C@@H]1O[C@H](CSCC[C@H](N)C(=O)O)[C@@H](O)[C@H]1O [SAH, S-(5′-Adenosyl)-L-homocysteine, reference compound]
IC50 [2]: 1680 nM | IC50 [3]: 2e-05 M | IC50 [4]: 511 nM | IC50 [5]: 259 nM | IC50 [6]: 76100 nM | IC50 [7]: 3.88e-06 M

insulin: component of the differentiation-inducing medium (DIM)
Nnmt expression (mRNA, RT-PCR) [1]: neither insulin nor IBMX impacted Nnmt expression significantly
